Reference: patent US9283236B2 (HUMAN MATRIX SCIENCES, LLC, priority 2008, dated 2016)
“Also recorded” adds a separate entry of the source.

Experiments:
[1] = system: c-Src; assay: Western blot of phospho-c-Src (Tyr416); format: cell-based, human
Protocol: (§1) Western blotting—Confluent fetal human cardiac fibroblast cultures were exposed with or without the treatment specified for the indicated time points. At the end of each experiment cells were lysed using an RIPA buffer (50 mM Tris.HCl, pH 7.4; 150 mM NaCl; 1 mM EDTA; 10 mM NaF; 1% Triton X-100; 0.1% SDS; 1% Na deoxycholate) containing a cocktail of antiproteases (20 μg/ml leupeptin, 10 μg/ml aprotinin, 0.1 mM PMSF, 1 mM DTT) and antiphosphates ([…] orthovanadate, 2 μg/ml pepstatin). Then 40-60 μg of protein extract was resuspended in sample buffer (0.5 M Tris.HCl, pH 6.8; 10% SDS; 10% glycerol; 4% 2-β-mercaptoethanol; and 0.05% bromophenol blue), and the mixture was boiled for 5 minutes. Protein lysates were resolved by precast SDS-PAGE gel (4-12% gradient), transferred to nitrocellulose membranes, blocked for an hour, and then immunoblotted with polyclonal anti-MR antibody, anti-phospho-c-Src (Tyr416) antibody, anti-phospho-Akt (Ser473) antibody, anti-Gα13 (goat) antibody, anti-SCAP2 antibody, or with buffer (TBS-T) at 4° C. overnight. All blots were then incubated with the appropriate HRP-conjugated secondary antibodies for an hour and examined using the enhanced chemiluminescence detection system. Blots were stripped and reprobed using specified antibodies. […] The degree of expression or phosphorylation of immunodetected signaling molecules was measured by densitometry.

[2] = system: human fetal cardiac fibroblasts; assay: One-step RT-PCR of elastin mRNA in cardiac fibroblast cultures; format: cell-based
[3] = system: Akt; assay: Western blot of phospho-Akt (Ser473); format: cell-based, human
Protocol: as §1

[4] = system: human fetal cardiac fibroblasts; assay: Quantitative assay of [3H]valine-labeled insoluble elastin; format: cell-based; conditions: 72 hours
[5] = system: human fetal cardiac fibroblasts; assay: Immunostaining of elastic fibers with anti-elastin antibody; format: cell-based; conditions: 10 μM PP2, 1 hour pretreatment, 50 nM aldosterone
Protocol: (§2) At the end of the 72-hour incubation period with the indicated treatment, confluent cultures were either fixed in ice-cold 100% methanol at −20° C. (for elastin staining) or in 4% paraformaldehyde at room temperature (for collagen staining) for 30 minutes and blocked with 1% normal goat serum for 1 hour at room temperature. The cultures were then incubated for 1 hour with 10 μg/ml polyclonal antibody to tropoelastin or with 10 μg/ml polyclonal antibody to collagen type I. All cultures were then incubated for an additional hour with fluorescein-conjugated goat anti-rabbit or with fluorescein-conjugated rabbit anti-goat secondary antibodies to detect elastin and collagen type I staining, respectively. Nuclei were counterstained with propidium iodide. Secondary antibody alone was used as a control. All of the cultures were then mounted in Elvanol and examined with a Nikon Eclipse E1000 microscope attached to a cooled charge-coupled device camera (Retiga EX; QImaging, Surrey, BC, Canada) and a computer-generated video analysis system (Image-Pro Plus software; Media Cybernetics, Silver Spring, Md.).
Immunostaining—At the end of the 72-hour incubation period with the indicated treatment, confluent cultures were fixed in cold 100% methanol at −20° C. […]

[6] = system: IGF-IR; assay: IGF-IR immunoprecipitation and anti-phosphotyrosine blot; format: cell-based, human
Protocol: Cells were lysed using an radioimmunoprecipitation assay buffer [50 mmol/L Tris-HCl, pH 7.4, 150 mmol/L NaCl, 1 mmol/L ethylenediamine tetraacetic acid, 10 mmol/L NaF, 1% Triton X-100, 0.1% sodium dodecyl sulfate, 1% sodium deoxycholate containing a cocktail of antiproteases (20 μg/ml leupeptin, 10 μg/ml aprotinin, 0.1 mmol/L phenylmethylsulfonyl fluoride, and 1 mmol/L dithiothreitol) and antiphosphates ([…] orthovanadate and 2 μg/ml pepstatin)], and 300 μg of protein extract was incubated with an antibody against IGF-IRβ for 1 hour at 4° C., followed by the addition of 4% protein A-beaded agarose left overnight, as previously described. The resulting protein-antibody conjugate was centrifuged at 4° C. and washed four times with phosphate-buffered saline. The final pellet was resuspended in sample buffer (0.5 mol/L Tris-HCl, pH 6.8, 10% sodium dodecyl sulfate, 10% glycerol, 4% 2-B-mercaptoethanol, and 0.05% bromphenol blue), and the mixture was boiled for 5 minutes. Proteins were resolved by 12% sodium dodecyl sulfate-polyacrylamide gel electrophoresis, transferred to nitrocellulose membranes, and then immunoblotted with anti-p-Tyr or anti-IGF-IR antibodies. The degree of expression or phosphorylation of immunodetected signaling molecules was measured by densitometry.
At the end of each experiment the cells were lysed as specified above, and 300 μg of protein extract were then precleared for 1 hour with normal rabbit agarose conjugated-IgG at 4° C. and incubated with rabbit polyclonal antibodies against IGF-IR-β, c-Src, or with Gα13 for 1 hour at 4° C., followed by the addition of 4% protein A-beaded agarose and left overnight. The resulting protein-antibody conjugate was centrifuged at 4° C. and washed four times with PBS. The final pellet was resuspended in sample buffer, and the proteins were resolved. Following immunoprecipitation of IGF-IR-β, the membrane was immunoblotted using monoclonal anti-p-Tyr antibody, stripped, and reprobed using anti-IGF-IR-β. Following immunoprecipitation of c-Src, the membranes were immunoblotted using polyclonal goat antibodies against anti-Gα13, while those immunoprecipitated with anti-Gα13 were developed with monoclonal anti-c-Src antibody. Blots were stripped and re-probed for equal loading.
The degree of expression or phosphorylation of immunodetected signaling molecules was measured by densitometry.

[7] = system: adult human cardiac fibroblasts; assay: Anti-elastin immunostaining in adult cardiac fibroblasts; format: cell-based; conditions: 1 to 50 nmol/L, 72 hours
Protocol: as §2, with “Control cell cultures received an equal amount of the solvent vehicle. […] ScienCell (San Diego, Calif.). At” for “At”, “-20°” for “−20°”, “(for elastin staining) or in 4% paraformaldehyde at room temperature (for collagen staining) for 30 minutes and blocked with 1% normal goat serum for 1 hour at room temperature.” left out, “E1000” left out

[8] = system: human fetal cardiac fibroblasts; assay: Quantitative assay of [3H]valine-labeled immunoprecipitable tropoelastin; format: cell-based; conditions: 1 to 50 nmol/L, 72 hours, vs untreated
Protocol: Fetal human cardiac fibroblasts were grown to confluence in 35-mm culture dishes (100,000 cells/dish) in quadruplicate. […] Cultures were incubated for 72 hours, and the soluble and insoluble elastin were assessed separately in each dish. The cells were extensively washed with phosphate-buffered saline, and the soluble proteins present in the intracellular compartments were extracted overnight at 4° C. with 0.1 mol/L acetic acid in the presence of proteinase inhibitors. After centrifugation, the supernatants were precleaned by 30-minute incubation with 50 μl of 4% protein A-beaded agarose, and then 500 μl of the supernatant was incubated with 5 μg of polyclonal antibody to tropoelastin for 2 hours and subsequently with 50 μl of 4% protein A-beaded agarose for 3 hours at 4° C. The protein A-containing beads were sedimented by centrifugation, washed with immunoprecipitation buffer, mixed with scintillation fluid, and counted. […] The resulting pellets containing the insoluble elastin were then solubilized by boiling in 200 μl of 5.7 N HCl for 1 hour, and the aliquots were mixed in scintillation fluid and counted. […] Final results reflecting amounts of metabolically labeled insoluble elastin in individual cultures were normalized per their DNA content and expressed as counts per minute per 1 μg of DNA.

[9] = system: human fetal cardiac fibroblasts; assay: Immunostaining of collagen type I fibers in confluent cultures; format: cell-based; conditions: 1 to 50 nmol/L, 72 hours
[10] = system: human fetal cardiac fibroblasts; assay: Cytotoxic effects of supraphysiological aldosterone in cardiac fibroblast cultures; format: cell-based; conditions: aldosterone 100 nmol/L and 1 μmol/L
[11] = system: human fetal cardiac fibroblasts; assay: One-step RT-PCR of collagen type I mRNA in cardiac fibroblast cultures; format: cell-based; conditions: 1 to 50 nmol/L, 24 hours, normalized to GAPDH mRNA, vs untreated control
[12] = system: Gα13 and c-Src; assay: Co-immunoprecipitation of Gα13 and c-Src; format: cell-based, human
[13] = system: adult human cardiac fibroblasts; assay: One-step RT-PCR of elastin mRNA in adult cardiac fibroblasts; format: cell-based; conditions: 1 to 50 nmol/L, 24 hours, normalized to GAPDH mRNA
[14] = system: rat myocardial infarction model; assay: Rat myocardial infarction model, postinfarction scar; format: in vivo; conditions: treated during the postinfarction period, vs vehicle-treated animals
[15] = 10 μM PP2 1 hour preincubation or 72 hour Gα13 siRNA transfection
[16] = 50 nM aldosterone, 30 minutes to 16 hours

**Q.** What does the source list for `CC(C)(C)n1nc(-c2ccc(Cl)cc2)c2c(N)ncnc21` [PP2]?
**A.** effect on aldosterone-induced c-Src phosphorylation [1, 15]: abolished this effect; effect on aldosterone-induced increase in elastin mRNA levels ([2]; agent added 1 hour (CT04 2 hours) before aldosterone, 24 hours): abolished an increase in elastin mRNA levels; effect on aldosterone-induced increase in phosphorylation of Akt [3, 15]: is indeed eliminated; also recorded: eliminates this effect; effect on aldosterone-induced increase in insoluble elastin production ([4]; agent added 1 hour before aldosterone (50 nM or 1 to 50 nmol/L)): eliminated the aldosterone-induced increase in the net deposition of insoluble elastin; effect on aldosterone-induced upregulation in elastic fiber production [5]: abolished an increase in elastin mRNA levels and the consequent upregulation in elastic fiber production

**Q.** For `C[C@]12CCC(=O)C=C1CC[C@@H]1[C@@H]2[C@@H](O)C[C@]2(C=O)[C@@H](C(=O)CO)CC[C@@H]12` [aldosterone], which “phosphorylation of c-Src on Tyr416” value ([1]; 50 nM aldosterone, 10 minutes) is on record?
**A.** increased phosphorylation of c-Src on Tyr416; also recorded: leading to activation of c-Src

**Q.** What about the “time at which tropoelastin mRNA begins to significantly increase” value [2, 16] of the same compound?
**A.** 1 h

**Q.** And the “time of maximum tropoelastin mRNA level” value [2, 16]?
**A.** 3 to 6 h

**Q.** And the “elastin mRNA transcript levels” value ([2]; 1 to 50 nmol/L, 24 hours, normalized to GAPDH mRNA, vs untreated control)?
**A.** heightened elastin mRNA levels, in a dose-dependent manner; also recorded: dose-dependently increased elastin mRNA transcript levels

**Q.** And the “IGF-IR tyrosine phosphorylation, aldosterone together with IGF-I vs IGF-I alone” value ([6]; 50 nmol/L aldosterone with 10, 25 or 50 ng/ml IGF-I, serum-free, 10 minutes)?
**A.** exhibit higher levels of IGF-IR tyrosine phosphorylation than their respective counterparts treated with the same doses of IGF-I alone

**Q.** What about the “tyrosine phosphorylation of the IGF-IR” value ([6]; 10-minute exposure, 10% fetal bovine serum, aldosterone or BSA-conjugate 50 nM, IGF-I 100 ng/ml) of the same compound?
**A.** transient increase in tyrosine phosphorylation of the IGF-IR above basal level; also recorded: produced a transient increase in tyrosine phosphorylation of the IGF-IR in control cultures; also recorded: significant increase in tyrosine phosphorylation of IGF-IR over basal levels

**Q.** And the “tyrosine phosphorylation of the IGF-IR, dependence on serum” value ([6]; presence vs absence of fetal bovine serum)?
**A.** induced a similar effect only in the presence of serum

**Q.** What about the “number of immunodetectable elastic fibers, adult cardiac fibroblasts” value [7] of the same compound?
**A.** significantly increased the number of immunodetectable elastic fibers

**Q.** What about the “[3H]valine-labeled tropoelastin” value [8] of the same compound?
**A.** proportional increase; also recorded: up to approximately three times more

**Q.** And the “basal phosphorylation of Akt” value ([3]; 50 nM aldosterone, 10 minutes)?
**A.** significant increase in the basal phosphorylation of Akt

**Q.** What about the “deposition of collagen fibers” value [9] of the same compound?
**A.** subsequent deposition of collagen fibers

**Q.** And the cytotoxic effects [10]?
**A.** did not produce any cytotoxic effects

**Q.** What about the “collagen type I mRNA transcript levels” value [11] of the same compound?
**A.** significant increase in the steady-state level of collagen type I mRNA; also recorded: significantly increased collagen type I mRNA transcript levels

**Q.** And the “[3H]valine incorporation into insoluble elastin” value ([4]; 1 to 50 nmol/L, vs untreated)?
**A.** proportional increase; also recorded: incorporate significantly more [^3H]valine into extracellular insoluble elastin

**Q.** What about the “time at which the Gα13/c-Src interaction was most evident” value ([12]; 50 nM aldosterone for 1, 5 or 10 minutes) of the same compound?
**A.** 5 min

**Q.** What about the “interaction between c-Src and Gα13” value ([12]; vs untreated controls) of the same compound?
**A.** increases the interaction between Gα13 and c-Src

**Q.** What about the “elastin mRNA transcript levels, adult cardiac fibroblasts” value [13] of the same compound?
**A.** dose-dependently increased elastin mRNA transcript levels

**Q.** `COC(=O)[C@@H]1CC2=CC(=O)CC[C@]2(C)[C@@]23O[C@@H]2C[C@@]2(C)[C@@H](CC[C@@]24CCC(=O)O4)[C@H]13` [eplerenone] was tested. Which postinfarction scar composition [14] did it give?
**A.** produced scars with abundant elastic fibers
